The values that follow come from US20080175831A1 (priority 2006, published 2008).

Series [1] has as its system Kv1.1 mutant mice. Briefly: Neural damage in the hippocampus assessed with FluoroJade B staining after systemic treatment. The format is in vivo, mouse. Conditions: blood flow suppressor 7-nitroindazole 50 mg/kg IP; blood flow enhancer acetazolamide 30 mg/kg IP. Here is the method:
Ictal hyperemia and/or ischemia leads to neuronal damage. The contribution of ictal blood flow to neural damage (assessed with Fluorojade B staining) is determined by measuring the neural damage in the hippocampus, as a function of systemic treatment with a blood flow suppressor (e.g., 7-nitroindazole; 50 mg/kg IP) and a blood flow enhancer (e.g., acetazolamide; 30 mg/kg IP).
Ictal hyperemia and/or ischemia leads to neuronal damage. The contribution of ictal blood flow to neural damage is assessed with FluoroJade B staining to measure the neural damage in the hippocampus, as a function of systemic treatment with a blood flow suppressor (7-nitroindazole; 50 mg/kg IP) and enhancer (acetazolamide; 30 mg/kg IP).
Ten minutes before imaging blood flow, drugs will be administered by IP injection at a volume of 0.01 ml per g of body weight. […]
The staining solution is made with 0.01% stock solution of FluoroJade B (Histo-Chem. Inc., Jefferson Ark.) in distilled water (final dye concentration of 0.0004%). […] The tissue representing the hippocampus is then examined using epifluorescence microscopy with blue (450-490 nm) excitation light: the position of the imaging focus is localized by the red Di-I track from the cannula, and neuronal damage is assessed by FluoroJade B staining colored green. […]

Series [2] relates to C3Heb/FeJ strain of Kv1.1 knockouts. Briefly: Status epilepticus induced with kainate, three-stage injection protocol. The format is in vivo, mouse. Here is the method: A three-stage injection protocol is employed to induce status epilepticus with kainate. Mice are given 10 mg/kg (in pH 7.4 saline) of kainate subcutaneously, after which they begin electroclinical seizure activity. An additional 5 mg/kg is administered 30 minutes after behavioral seizure initiation, followed by another 5 mg/kg dose sc after another 30 minutes. This protocol has previously provided a high survivability rate (greater than 90%) in the C3Heb/FeJ strain of Kv1.1 knockouts, and to moreover sustain the status for at least a 2-hour duration. Behavioral seizure scoring is conducted using a modified Racine scale, and cumulative seizure scores are generated for each animal (a seizure score is given every minute, with the highest numerical value based on the Racine scale; then the cumulative score is generated by adding all the individual scores for each minute of seizure activity).

Series [3] relates to Kv1.1 mutants. Conditions: 30 mg/kg IP; cited from earlier work.
In series [4] the test system is seizures. To be noted: in vivo; cited from earlier work.
[5] abbreviates: kainate 10 mg/kg sc, then 5 mg/kg and 5 mg/kg at 30 minute intervals.

Regarding `O=[N+]([O-])c1cccc2cn[nH]c12` [7-nitroindazole], the “neural damage in the hippocampus (FluoroJade B staining)” value in series [1] is on record as “less neural damage”.

Turning to `C=C(C)[C@H]1CN[C@H](C(=O)O)[C@H]1CC(=O)O` [kainate], in series [2] (setting [5]), the “duration of sustained status epilepticus” value is no less than 2 h and the survivability rate entry is given as “greater than 90%”. Moreover, the “neural damage after kainate-induced status epilepticus (FIGS. 6A-6B)” value in series [2] (mouse, FluoroJade B) is on record as “statistically significant effects of neural damage”.

For `CC(=O)Nc1nnc(S(N)(=O)=O)s1` [acetazolamide], in series [1], the “neural damage in the hippocampus (FluoroJade B staining)” value was “increased neural damage”. In series [3], the “effect on blood flow” value is reported as “increased blood flow”. Also, the effect on seizures result in series [4] is recorded as “reduce seizures”.
